Experimental findings from US20240041765A1, “ORAL LIQUID SUSPENSION OF PAN-RAF KINASE INHIBITOR” (DAY ONE BIOPHARMACEUTICALS, INC., priority 2022, published 2024) are described below.

This data set can be described thus: Single oral dose mouse PK in male CD-1 mice. Format: in vivo. The conditions noted are these: plasma, single oral dose 50 mg/kg, Mean ± SD, n = 3, vehicle: Group 1 100% PEG400, Groups 2-3 DI water, Group 4 0.5% methylcellulose in water (w/v). How it is done: Amorphous solid dispersions of Compound A in aqueous suspension formulations were administered via oral gavage in male CD-1 mice to assess Compound A plasma exposure. Pharmacokinetics (PK) of Compound A crystalline drug substance dissolved in organic solvent (PEG400) were used to generate a solution formulation—also included as the comparator group in this study. The concentrations of Compound A in mouse plasma were quantified with a qualified LC-MS/MS method.
Each oral dosing group consisted of 3 male CD-1 mice. At dosing, the animals weighted between 0.0297 to 0.0376 kg. Animals were not fasted prior to oral administration in this study. Compound A drug substances in corresponding dosing vehicles were administered by oral route using polypropylene gavage tube to CD-1 mice. Serial blood samples were collected at 0.25, 0.50, 1, 4, 8 and 24 hours post-dose. Serial blood samples were collected from a tail vein or another approved method at 0.25, 0.50, 1, 4, 8 hours post-dose. Terminal blood collection were collected via cardiac puncture at 24 hours post-dose.
Blood samples were collected into K2EDTA tubes according to in-life study protocol and immediately placed on wet ice and then centrifuged for 10 minutes at 3500 rpm for plasma preparation. All plasma samples were placed in 96-well strip-tube rack and stored in freezer until plasma analysis. Immediately following terminal blood collection, the brain tissue was collected for each animal. Each tissue was collected into pre-weighed tube and the weight of the tissue sample was determined. Samples were flash frozen and kept on dry ice until stored at −70° C. prior to sample processing and analysis. Table 27 provides the study design for the oral administration of Compound A in mice and summary of mouse PK parameters.
Non compartmental pharmacokinetic (NCA) analysis was performed on plasma concentration data using WinNonlin module in the Phoenix Platform (version 8.3.1 or above, Certara Inc., Princeton, NJ 08540). Calculations were performed using nominal sampling times in the pharmacokinetic analysis. All pharmacokinetic parameters and summary statistics are reported to 3 significant digits except for Tmax, which is reported to 2 decimal places. • Cmax: Observed peak blood/plasma concentration • Tmax: Time to reach observed peak blood/plasma concentration • kel: Elimination rate constant determined by linear regression analysis of selected time points in the apparent terminal phase of the log plasma concentration vs. time curve (not reported) • t1/2: Apparent terminal half-life calculated as ln(2)/kel • MRT: Mean time a drug molecule resides in body • AUC0-last: Area under the plasma concentration vs. time curve from 0 to the last quantifiable concentration calculated by the linear trapezoidal method • AUC0-inf: Area under the plasma concentration vs. time curve from 0 h to infinity, calculated as AUC0-last+Clast/kel

As usually defined, the Cmax is the maximum level reached in the sampled fluid or tissue. The Tmax is the time at which the peak concentration occurs.

Consider `C[C@@H](NC(=O)c1ncnc(N)c1Cl)c1ncc(C(=O)Nc2cc(C(F)(F)F)c(Cl)cn2)s1` [DAY 101 API], for which the AUC0-inf turned out to be 407 ± 20.4 µg·h/mL, the AUC0-last was found to be 300 ± 24.7 µg·h/mL, the Cmax turned out to be 18.3 ± 1.51 µg/mL and the MRTlast turned out to be 9.42 ± 0.573 h. Further, the Tmax was found to be 8.00 ± 0.00 h and the t1/2 was determined as 12.7 ± 2.30 h.
